Measured values from PubChem BioAssay AID743302 (Broad Institute, 2014).
Several values for one entry are separate records, joined by “and”; a condition that tells them apart may be missing. Identical values can stand only once. Activity calls are given as the source filed them.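 The calls were made as follows: active = fitted curve rises past activity 40 at a concentration no higher than the top valid tested dose; inconclusive = flat curve at 30 to 70 percent, or poor fit; inactive = the rest, including activity in the opposite direction.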

Columns and labels:
[1] = tested on: C. neoformans lysis, adenylate kinase release luminescence, 4 h; experiment: fungal lysis via adenylate kinase leakage – AK release luminescence, dry powder, set 3, dose response (AID 743302)
[2] = as above; conditions: C. neoformans lysis, adenylate kinase release luminescence, 4 h; at 15 µM (top of the series)

| Compound | AC40 [1] | cell lysis activity [2] |
| --- | --- | --- |
| Cc1ccc(OCCn2c(=S)[nH]c3ccccc32)c(C(C)C)c1 | 9540 nM and 1410 nM | – |
| Cc1cccc(OCCn2c(=S)[nH]c3ccccc32)c1 | 910 nM | – |
| Cc1ccc(C(C)C)c(OCCn2c(=S)[nH]c3cccc(Cl)c32)c1 | > 15000 nM (inactive) | – |
| Cc1cccc(OCCn2c(=S)[nH]c3cc(F)ccc32)c1 | 581 nM and 1820 nM | – |
| Fc1cccc2c1[nH]c(=S)n2CCOc1ccccc1 | 3180 nM and 2700 nM and 1570 nM | – |
| CCOc1ccc(OCCn2c(=S)[nH]c3ccccc32)cc1 | 1380 nM | – |
| O=c1[nH]c2ccccc2n1CCOc1ccccc1 | > 15000 nM (inactive) | – |
| CC(C)c1ccccc1NCCn1c(=S)[nH]c2ccccc21 | 5860 nM | – |
| Cc1ccc(C)c(OCCn2c(=S)[nH]c3ccccc32)c1 | 1820 nM | – |
| Cc1ccc(C(C)C)c(OCCn2c(=S)[nH]c3c(C)cccc32)c1 | 1820 nM | – |
| S=c1[nH]c2ccccc2n1CCOc1ccc(Cl)cc1 | 1190 nM | – |
| Cc1cccc(OCCn2c(=S)[nH]c3ccc(C(F)(F)F)cc32)c1 | 14300 nM | – |
| S=c1[nH]c2cc(Cl)ccc2n1CCOc1ccccc1 | 358 nM | – |
| Cc1ccc(OCCn2c(SCCO)nc3ccccc32)c(C(C)C)c1 | > 15000 nM (inactive) | – |
| COc1ccc(OCCn2c(=S)[nH]c3ccccc32)cc1 | 13700 nM | – |
| Cc1cccc2[nH]c(=S)n(CCOc3ccccc3)c12 | 211 nM | – |
| S=c1[nH]c2cccc(Cl)c2n1CCOc1ccccc1 | 3600 nM and 619 nM | – |
| Fc1ccccc1OCCn1c(=S)[nH]c2ccccc21 | 8740 nM | – |
| Fc1ccc2c(c1)[nH]c(=S)n2CCOc1ccccc1 | 3060 nM and 1950 nM | – |
| COCc1nc2ccccc2n1CCOc1ccc(C(C)(C)C)cc1 | 6790 nM | – |
| Cc1ccc(C(C)C)c(OCCn2c(CO)nc3ccccc32)c1 | 14000 nM | – |
| Cc1cccc(OCCn2c(=S)[nH]c3cc(C(F)(F)F)ccc32)c1 | > 15000 nM (inactive) | – |
| Cc1ccc(OCCn2c(=S)[nH]c3ccccc32)cc1 | 1140 nM | – |
| Cc1ccc(C(C)C)c(OCCn2c(=S)[nH]c3cc(F)ccc32)c1 | 5510 nM | – |
| Cc1cccc(OCCn2c(=S)[nH]c3c(F)cccc32)c1 | 726 nM and 1300 nM | – |
| c1ccc(OCCn2cnc3ccccc32)cc1 | > 15000 nM (inactive) | – |
| Fc1ccc(OCCn2c(=S)[nH]c3ccccc32)cc1 | – | -54.7% (inactive) |

| Compound | AC40 [1] | cell lysis activity [2] |
| --- | --- | --- |
| Cc1ccc(C(C)C)c(OCCn2c(=S)[nH]c3c(Cl)cccc32)c1 | > 15000 nM (inactive) | – |
| CC(C)(C)c1ccc(OCCn2c(=S)[nH]c3ccccc32)cc1 | – | 4.17% (inactive) |
| Cc1cccc(OCCn2c(=S)[nH]c3ccccc32)c1C | > 15000 nM (inactive) | – |
| Cc1ccccc1OCCn1c(=S)[nH]c2ccccc21 | 1870 nM | – |
| Cc1ccc(C(C)C)c(OCCn2c(=S)[nH]c3cccc(F)c32)c1 | > 15000 nM (inactive) | – |
| Cc1ccc2c(c1)[nH]c(=S)n2CCOc1ccccc1 | 4240 nM and 940 nM | – |
| Cc1ccc(C(C)C)c(OCCn2c(=S)[nH]c3c(F)cccc32)c1 | – | -28.6% (inactive) |
| Cc1ccc(C(C)C)c(OCCn2c(=S)[nH]c3cccc(C)c32)c1 | 8260 nM | – |
| S=c1[nH]c2ccccc2n1CCOc1ccccc1 | – | 33.9% (inactive) |
| COc1cccc(OCCn2c(=S)[nH]c3ccccc32)c1 | > 15000 nM (inactive) | – |
| Cc1ccc(C(C)C)c(OCCn2c(=S)[nH]c3ccc(F)cc32)c1 | 1060 nM | – |
| CC(C)c1ccc(OCCn2c(=S)[nH]c3ccccc32)cc1 | 172 nM | – |
| Cc1ccc(OCCn2cnc3ccccc32)cc1 | > 15000 nM (inactive) | – |
| CSc1nc2ccccc2n1CCOc1cc(C)ccc1C(C)C | – | 3.47% (inactive) |
| Cc1ccc(OCCn2c(C)nc3ccccc32)cc1 | > 15000 nM (inactive) | – |
| Cc1ccc(C(C)C)c(OCCn2c(=S)[nH]c3ccc(Cl)cc32)c1 | > 15000 nM (inactive) | – |
| Cc1ccc(OCCn2c(=S)[nH]c3ccccc32)c(C)c1 | > 15000 nM (inactive) | – |
| Cc1ccc(OCCn2cnc3ccccc32)c(C(C)C)c1 | 3820 nM | – |
| Cc1ccc(C(C)C)c(OCCn2c(=S)[nH]c3ccccc32)c1 | 3570 nM and 2720 nM | – |
| CC(C)(C)c1ccccc1OCCn1c(=S)[nH]c2ccccc21 | 3230 nM | – |
| COc1ccccc1OCCn1c(=S)[nH]c2ccccc21 | – | -4.68% (inactive) |
| S=c1[nH]c2ccccc2n1CCOc1ccccc1Cl | 902 nM | – |
| CC(C)(C)c1ccc(OCCn2cnc3ccccc32)cc1 | 1950 nM | – |
| Fc1cccc(OCCn2c(=S)[nH]c3ccccc32)c1 | 3270 nM | – |
| Fc1ccc2[nH]c(=S)n(CCOc3ccccc3)c2c1 | > 15000 nM (inactive) | – |
| CC(C)c1ccccc1OCCn1c(=S)[nH]c2ccccc21 | 1110 nM | – |
